# Values of other authors in article PMC2409929 (British Journal of Cancer, 2004).
# Marks after values point to notes of the source that are not given here.
# Key:
# topo-isomerase I = tested on: topo-isomerase I; parameters: method as in Slatter et al, 1997; conditions: in vitro models; ref Slatter et al, 1997; cited from earlier work
# [1] = N=6, mean±s.d., ref 16 (Herben et al, 1999), cited from earlier work
# [2] = after irinotecan 140 mg m^−2: 10 mg m^−2 as 14-day prolonged infusions
smiles,measurement,setting,value
"CCc1c2c(nc3ccc(O)cc13)-c1cc3c(c(=O)n1C2)COC(=O)[C@]3(O)CC [SN-38, 7-ethyl-10-hydroxycamptothecin]",Potency as topo-isomerase I inhibitor relative to parent compound (irinotecan),topo-isomerase I,100–1000 times
same,Metabolic ratio (SN-38 AUC over irinotecan AUC),[1]; 140 mg m^−2: 10 mg m^−2 irinotecan as 14-day prolonged infusions,0.12±0.02 ^b
same,SN-38 AUC,[1]; [2],1.4 ± 0.3 µM·h
same,SN-38 AUCc (AUC per cycle),[1]; [2],4.2 ± 0.9 µM·h
